Measurements: patent publication US12403326B2, “System for corneal cross-linking and correcting vision by using LED contact lens and eye dye” (PHI BIOMED INC., priority 2019, dated 2025)

What was measured:
[1] = system: bovine cornea; experiment: Corneal strength, Young's modulus using Instron equipment; conditions: bovine cornea after collagen crosslinking; untreated Control 1.76
Protocol: (§1) Hyaluronic acid or a hyaluronic acid-Rose Bengal conjugate were dropped on the bovine cornea at 5-minute intervals for 30 minutes, and a 532-nm laser was irradiated for 30 minutes to induce crosslinking between corneal collagen. Afterward, corneal tissue was fixed with formalin, and stained with H&E, followed by observation under a microscope.
In addition, the bovine cornea in which collagen crosslinking was induced was extracted, and then the Young's modulus of the cornea was measured using Instron equipment to analyze the strength of the cornea.

[2] = system: bovine cornea; experiment: Corneal bonding of wounded cornea, intraocular pressure by tonometer after 532-nm laser; conditions: wounded bovine eye; dropped at 5-minute intervals for 30 minutes, 532-nm laser for 30 minutes
Protocol: After approximately […] wound was made in the bovine cornea, the pressure in the bovine eye was measured using a tonometer. Afterward, each of a hyaluronic acid-Rose Bengal conjugate solution and a Rose Bengal solution was dropped on the wound-induced region at 5-minute intervals for 30 minutes, and a 532-nm laser was irradiated for 30 minutes to induce crosslinking between corneal collagen to bond. Likewise, an intraocular pressure was measured after bonding by a laser using a tonometer.
By comparing the intraocular pressure before and after bonding, it was confirmed whether bonding was formed.

[3] = system: bovine cornea; experiment: Corneal thickness from H&E stained corneal tissue after collagen crosslinking; conditions: decreased from 1000 μm; dropped for 30 minutes, 532-nm laser for 30 minutes; H&E images
Protocol: as §1

[4] = system: bovine cornea; experiment: Corneal permeability by two-photon image analysis; assay type: in vitro ADME; conditions: dropped on bovine cornea at 5-minute intervals for 30 minutes; two-photon imaging
Protocol: The hyaluronic acid-Rose Bengal conjugate synthesized in Example 1 was dropped on the bovine cornea at 5-minute intervals for 30 minutes. As a comparative group, a pure Rose Bengal solution was dropped in the same manner as described above.
Afterward, two-photon image analysis was performed by extracting the cornea from the bovine cornea.

O=C([O-])c1c(Cl)c(Cl)c(Cl)c(Cl)c1-c1c2cc(I)c(=O)c(I)c-2oc2c(I)c([O-])c(I)cc12.[Na+].[Na+] [Rose Bengal]
Young's modulus of the cornea [1]: 2.75
increase in maximum intraocular pressure compared to not treated [2]: approximately two
corneal thickness after treatment [3]: 750 μm
depth up to which fluorescence was shown in the cornea (corneal permeability) [4]: 400 μm
